# Source: ChEMBL document CHEMBL5614417, “Discovery of AMPs from random peptides via deep learning-based model and biological activity validation” (Eur J Med Chem, 2024)
# Calls of active or inactive are those of the source. The calls are words filed in the database; no cut-off is given here. Where a SMILES comes first, the peptide text is derived from it.
# How the values were obtained:
# Staphylococcus aureus [1] = assay: Induction of resistance development against Staphylococcus aureus assessed as fold increase in MIC after 21 passages; assay type: functional
# Cell membrane [2] = assay: Disruption of outer membrane integrity in Escherichia coli assessed as increase in fluorescence intensity by measuring NPN uptake at 1 to 4 times MIC by fluorescence based analysis; assay type: cell membranes; conditions: TDE = time-dependent effect
# Staphylococcus aureus [3] = assay: Antibacterial activity against Staphylococcus aureus ATCC 25923 incubated for 18 hrs in presence of 50 mM NaCl by visual inspection method; assay type: functional
# Staphylococcus aureus [4] = assay: Antibacterial activity against methicillin resistant Staphylococcus aureus 4 incubated for 18 hrs by visual inspection method; assay type: functional
# Escherichia coli [5] = assay: Antibacterial activity against Escherichia coli ATCC 25922 incubated for 18 hrs in presence of 100 mM NaCl by visual inspection method; assay type: functional
# Staphylococcus aureus [6] = assay: Antibacterial activity against Staphylococcus aureus ATCC 25923 incubated for 18 hrs in presence of 100 mM NaCl by visual inspection method; assay type: functional
# Cell membrane [7] = assay: Induction of cell membrane damage in Escherichia coli assessed as change in morphology by measuring numerous blebs covered membrane at 4 times MIC incubated for 5 hrs by SEM analysis; assay type: cell membranes
# Acinetobacter baumannii [8] = assay: Antibacterial activity against multidrug resistant Acinetobacter baumannii 1 incubated for 18 hrs by visual inspection method; assay type: functional
# Acinetobacter baumannii [9] = assay: Antibacterial activity against multidrug resistant Acinetobacter baumannii 2 incubated for 18 hrs by visual inspection method; assay type: functional
# Escherichia coli [10] = assay: Antibacterial activity against ESBL Escherichia coli 5 incubated for 18 hrs by visual inspection method; assay type: functional
# Staphylococcus aureus [11] = assay: Antibacterial activity against Staphylococcus aureus ATCC 25923 incubated for 18 hrs by visual inspection method; assay type: functional
# Cell membrane [12] = assay: Induction of cell membrane damage in Staphylococcus aureus assessed as decrease in red/green fluorescence ratio at 2 times MIC by DiOC2(3) fluorescent probe based assay; assay type: cell membranes
# Cell membrane [13] = assay: Induction of cell membrane damage in Staphylococcus aureus assessed as change in morphology by measuring deformed membrane at 4 times MIC incubated for 5 hrs by SEM analysis; assay type: cell membranes
# Staphylococcus aureus [14] = assay: Antibacterial activity against methicillin resistant Staphylococcus aureus 1 incubated for 18 hrs by visual inspection method; assay type: functional
# Cell membrane [15] = assay: Induction of inner membrane permeability in Escherichia coli ML-35 measured every 5 mins for 90 mins by ONPG dye based assay; assay type: cell membranes
# Escherichia coli [16] = assay: Antibacterial activity against Escherichia coli ATCC 25922 incubated for 18 hrs in presence of 150 mM NaCl by visual inspection method; assay type: functional
# [17] = Hemolytic activity in rat erythrocytes at 1000 ug/ml incubated for 1 hr; assay type: toxicity, cell-based, Erythrocyte; conditions: at 1000 µg/mL, read-out: Activity
# Staphylococcus aureus [18] = assay: Antibacterial activity against methicillin resistant Staphylococcus aureus 2 incubated for 18 hrs by visual inspection method; assay type: functional
# Escherichia coli [19] = assay: Antibacterial activity against Escherichia coli ATCC 25922 incubated for 18 hrs in presence of 50 mM NaCl by visual inspection method; assay type: functional
# Cell membrane [20] = assay: Induction of inner membrane permeability in Escherichia coli ML-35 at 1 to 4 times MIC by ONPG dye based assay; assay type: cell membranes; conditions: TDE = time-dependent effect
# Escherichia coli [21] = assay: Antibacterial activity against ESBL Escherichia coli 4 incubated for 18 hrs by visual inspection method; assay type: functional
# Cell membrane [22] = assay: Disruption of outer membrane integrity in Escherichia coli assessed as increase in fluorescence intensity by measuring NPN uptake measured every min for 15 mins by fluorescence based analysis; assay type: cell membranes
# Cell membrane [23] = assay: Induction of cell membrane damage in Escherichia coli assessed as change in morphology by measuring deformed membrane at 4 times MIC incubated for 5 hrs by SEM analysis; assay type: cell membranes
# [24] = tested on: Staphylococcus epidermidis; assay: Antibacterial activity against Staphylococcus epidermidis ATCC 12228 incubated for 18 hrs by visual inspection method; assay type: functional
# Staphylococcus aureus [25] = assay: Antibacterial activity against Staphylococcus aureus ATCC 25923 incubated for 18 hrs in presence of 150 mM NaCl by visual inspection method; assay type: functional
# Cell membrane [26] = assay: Induction of cell membrane damage in Escherichia coli at 4 times MIC incubated for 30 mins by PI staining based confocal laser scanning microscopic analysis; assay type: cell membranes
# Escherichia coli [27] = assay: Antibacterial activity against ESBL Escherichia coli 2 incubated for 18 hrs by visual inspection method; assay type: functional
# [28] = Stability in Sprague-Dawley rat serum at 62.5 ug/ml measured upto 480 mins by RP-HPLC method; assay type: ADME, cell-free; conditions: 8 h, at 62.5 µg/mL
# Bacillus subtilis = assay: Antibacterial activity against Bacillus subtilis ATCC 23857 incubated for 18 hrs by visual inspection method; assay type: functional
# Cell membrane [29] = assay: Induction of cell membrane damage in Escherichia coli assessed as change in morphology by measuring roughened membrane at 4 times MIC incubated for 5 hrs by SEM analysis; assay type: cell membranes
# Acinetobacter baumannii [30] = assay: Antibacterial activity against multidrug resistant Acinetobacter baumannii 4 incubated for 18 hrs by visual inspection method; assay type: functional
# Cell membrane [31] = assay: Induction of cell membrane damage in Staphylococcus aureus assessed as change in morphology by measuring roughened membrane at 4 times MIC incubated for 5 hrs by SEM analysis; assay type: cell membranes
# Erythrocyte [32] = assay: Hemolytic activity in rat erythrocytes incubated for 1 hr; assay type: toxicity, cell-based
# Klebsiella pneumoniae = assay: Antibacterial activity against Klebsiella pneumoniae ATCC 700603 incubated for 18 hrs by visual inspection method; assay type: functional
# Acinetobacter baumannii [33] = assay: Antibacterial activity against Acinetobacter baumannii ATCC 19606 incubated for 18 hrs by visual inspection method; assay type: functional
# Cell membrane [34] = assay: Induction of cell membrane damage in Staphylococcus aureus assessed as decrease in red/green fluorescence ratio by DiOC2(3) fluorescent probe based assay; assay type: cell membranes
# Acinetobacter baumannii [35] = assay: Antibacterial activity against multidrug resistant Acinetobacter baumannii 5 incubated for 18 hrs by visual inspection method; assay type: functional
# Erythrocyte [36] = assay: Hemolytic activity in rat erythrocytes at 250 ug/ml incubated for 1 hr; assay type: toxicity, cell-based; conditions: dose 250 µg/ml
# Escherichia coli [37] = assay: Antibacterial activity against Escherichia coli ATCC 25922 incubated for 18 hrs by visual inspection method; assay type: functional
# Erythrocyte [38] = assay: Hemolytic activity in rat erythrocytes at 500 to 1000 ug/ml incubated for 1 hr; assay type: toxicity, cell-based; conditions: dose 500-1000 µg/ml
# Escherichia coli [39] = assay: Antibacterial activity against ESBL Escherichia coli 3 incubated for 18 hrs by visual inspection method; assay type: functional
# Acinetobacter baumannii [40] = assay: Antibacterial activity against multidrug resistant Acinetobacter baumannii 3 incubated for 18 hrs by visual inspection method; assay type: functional
# Staphylococcus aureus [41] = assay: Antibacterial activity against methicillin resistant Staphylococcus aureus 3 incubated for 18 hrs by visual inspection method; assay type: functional
# Cell membrane [42] = assay: Induction of cell membrane damage in Staphylococcus aureus assessed as change in morphology by measuring numerous blebs covered membrane at 4 times MIC incubated for 5 hrs by SEM analysis; assay type: cell membranes
# Escherichia coli [43] = assay: Antibacterial activity against ESBL Escherichia coli 1 incubated for 18 hrs by visual inspection method; assay type: functional
# Cell membrane [44] = assay: Induction of cell membrane damage in Staphylococcus aureus at 4 times MIC incubated for 30 mins by PI staining based confocal laser scanning microscopic analysis; assay type: cell membranes
smiles,measurement,setting,value
O=C(O)c1cn(C2CC2)c2cc(N3CCNCC3)c(F)cc2c1=O,fold change (FC),Staphylococcus aureus [1],16
CC[C@H](C)[C@H](NC(=O)[C@@H](N)CCCNC(=N)N)C(=O)NCC(=O)N[C@@H](Cc1c[nH]c2ccccc12)C(=O)N[C@@H](CS)C(=O)N[C@@H](C)C(=O)N[C@@H](Cc1c[nH]c2ccccc12)C(=O)N[C@@H](CC(C)C)C(=O)N[C@@H](CC(C)C)C(=O)N[C@@H](CCCCN)C(=O)N[C@@H](CC(N)=O)C(=O)N[C@@H](CCCCN)C(=O)N[C@@H](C)C(N)=O (H-RIGWCAWLLKNKA-NH2),Activity,Cell membrane [2],Tde
same,MIC,Staphylococcus aureus [3],60 µg/mL
same,MIC,Staphylococcus aureus [4],60 µg/mL
same,MIC,Escherichia coli [5],30 µg/mL
same,MIC,Staphylococcus aureus [6],60 µg/mL
same,Activity,Cell membrane [7],Active
same,MIC,Acinetobacter baumannii [8],15 µg/mL
same,MIC,Acinetobacter baumannii [9],15 µg/mL
same,MIC,Escherichia coli [10],30 µg/mL
same,MIC,Staphylococcus aureus [11],60 µg/mL
same,Activity,Cell membrane [12],Active
same,Activity,Cell membrane [13],Active
same,MIC,Staphylococcus aureus [14],60 µg/mL
same,Activity,Cell membrane [15],Dose-Dependent Effect
same,MIC,Escherichia coli [16],30 µg/mL
same,"hemolysis at 1 h, 1000 ug/ml",[17],8.18%
same,MIC,Staphylococcus aureus [18],60 µg/mL
same,MIC,Escherichia coli [19],30 µg/mL
same,Activity,Cell membrane [20],Tde
same,MIC,Escherichia coli [21],30 µg/mL
same,Activity,Cell membrane [22],Dose-Dependent Effect
same,Activity,Cell membrane [23],Active
same,MIC,[24],15 µg/mL
same,MIC,Staphylococcus aureus [25],60 µg/mL
same,Activity,Cell membrane [26],Active
same,MIC,Escherichia coli [27],30 µg/mL
same,Stability,[28],Unstable
same,MIC,Bacillus subtilis,15 µg/mL
same,Activity,Cell membrane [29],Active
same,MIC,Acinetobacter baumannii [30],15 µg/mL
same,Activity,Cell membrane [31],Active
same,HC5,Erythrocyte [32],779.41 µg/mL
same,MIC,Klebsiella pneumoniae,60 µg/mL
same,MIC,Acinetobacter baumannii [33],15 µg/mL
same,Activity,Cell membrane [34],Dose-Dependent Effect
same,MIC,Acinetobacter baumannii [35],15 µg/mL
same,Activity,Erythrocyte [36],Non-Toxic
same,MIC,Escherichia coli [37],30 µg/mL
same,Activity,Erythrocyte [38],Toxic
same,MIC,Escherichia coli [39],30 µg/mL
same,MIC,Acinetobacter baumannii [40],15 µg/mL
same,MIC,Staphylococcus aureus [41],60 µg/mL
same,Activity,Cell membrane [42],Active
same,MIC,Escherichia coli [43],30 µg/mL
same,Activity,Cell membrane [44],Active
